Source: ChEMBL document CHEMBL3603826, “6-Arylpyrazine-2-carboxamides: A New Core for Trypanosoma brucei Inhibitors” (J Med Chem, 2015)
Values after ≈ are worked out from the molar mass of the structure shown.

What was measured:
[1] = tested on: Trypanosoma brucei brucei; assay: Anti-parasitic activity against Trypanosoma brucei brucei 427 bloodstream parasites incubated for 48 hrs by alamar blue dye based assay; format: functional, organism-based; conditions: Trypanosoma brucei, 427, 48 h
[2] = Selectivity index, ratio of cytotoxic IC50 for HEK293 cells to EC50 for anti-parasitic activity against Trypanosoma brucei brucei 427 bloodstream parasites; format: toxicity, cell-based; conditions: human, read-out: Ratio IC50/EC50
[3] = Intrinsic clearance in human liver microsomes assessed per mg protein at pH 7.4 at 0.5 uM in presence of NADPH regenerating system by LC-MS method; format: ADME; conditions: read-out: CLH
[4] = Partition coefficient, logD of the compound at pH 7.4 by HPLC method; format: physicochemical; conditions: octanol/water
[5] = Kinetic solubility in pH 6.5 phosphate buffer by nephelometry; format: physicochemical; conditions: read-out: Kinetic_solubility
[6] = Kinetic solubility in pH 2.0 0.01M HCl buffer by nephelometry; format: physicochemical; conditions: read-out: Kinetic_solubility
[7] = Stability assessed as degradation half life; format: physicochemical
serum albumin = serum albumin (Homo sapiens, UniProt P02768); assay: Binding affinity to human serum albumin by chromatographic method; format: ADME; conditions: read-out: PB (converted)
Plasmodium falciparum = assay: Anti-parasitic activity against chloroquine and pyrimethamine resistant Plasmodium falciparum K1 erythrocytic stages infected in human erythrocytes incubated for 48 hrs by [3H]-hypoxanthine incorporation assay; format: functional, organism-based
Leishmania donovani = assay: Anti-parasitic activity against Leishmania donovani MHOM/ET/67/L82 axenic amastigotes incubated for 70 hrs by alamar blue dye based assay; format: functional, organism-based; conditions: MHOM/ET/67/L82, 70 h
[8] = tested on: Trypanosoma brucei rhodesiense; assay: Anti-parasitic activity against Trypanosoma brucei rhodesiense STIB 900 trypomastigotes incubated for 70 hrs by alamar blue dye based assay; format: functional, organism-based; conditions: STIB 900, 70 h
Trypanosoma cruzi = assay: Anti-parasitic activity against Trypanosoma cruzi Tulahuen C2C4 trypomastigotes infected rat L6 cells incubated for 96 hrs by CPRG/nonidet substrate based […]; format: functional, organism-based; conditions: Tulahuen C2C4, L6, 96 h
[9] = Selectivity index, ratio of cytotoxic IC50 for rat L6 cells to EC50 for anti-parasitic activity against Trypanosoma brucei rhodesiense STIB 900; format: toxicity, cell-based; conditions: read-out: Ratio IC50/EC50
[10] = Toxicity against rat L6 cells incubated for 70 hrs by alamar blue dye based assay; format: cell-based

serum albumin, sequence (P02768 whole entry): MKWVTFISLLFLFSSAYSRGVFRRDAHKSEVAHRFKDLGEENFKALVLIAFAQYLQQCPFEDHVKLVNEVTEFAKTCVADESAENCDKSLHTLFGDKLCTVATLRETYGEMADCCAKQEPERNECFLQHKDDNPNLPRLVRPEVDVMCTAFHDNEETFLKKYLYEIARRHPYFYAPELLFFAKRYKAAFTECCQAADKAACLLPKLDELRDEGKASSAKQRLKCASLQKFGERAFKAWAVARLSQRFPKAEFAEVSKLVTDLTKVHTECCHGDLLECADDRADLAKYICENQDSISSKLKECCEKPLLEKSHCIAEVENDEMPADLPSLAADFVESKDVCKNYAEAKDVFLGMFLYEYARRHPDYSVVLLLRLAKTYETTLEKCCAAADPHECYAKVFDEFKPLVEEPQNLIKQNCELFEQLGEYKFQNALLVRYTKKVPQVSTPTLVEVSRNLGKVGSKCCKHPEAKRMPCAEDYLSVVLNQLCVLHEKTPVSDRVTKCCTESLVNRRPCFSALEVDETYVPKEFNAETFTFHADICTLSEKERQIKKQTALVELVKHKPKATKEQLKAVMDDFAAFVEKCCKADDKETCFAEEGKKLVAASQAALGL

| Compound | EC50 [1] [nM] | selectivity ratio [2] | also measured |
| --- | --- | --- | --- |
| Nc1ncc(-c2ccccc2)nc1C(=O)Nc1ccccc1 | > 10000 | – | – |
| CCC(C)NC(=O)c1nc(-c2ccccc2Br)cnc1N (stereo not drawn) | > 10000 | – | – |
| N#Cc1ccccc1-c1cnc(N)c(C(=O)NC2CCCC2)n1 | 200 | 416 | EC50 (Plasmodium falciparum): 2500 nM; microsomal CLint at 0.5 µM [3]: 165 µL/min/mg; logD [4]: 3.9; EC50 (Leishmania donovani): > 10000 nM; EC50 [8]: 570 nM; solubility kinetic [5]: < 1.6 µg/mL; EC50 (Trypanosoma cruzi): 5200 nM; selectivity ratio [9]: 19; solubility kinetic [6]: 3.1 µg/mL (≈ 10.1 µM); half-life [7]: 10 min; fraction unbound (serum albumin): 0.038; IC50 at 70 h [10]: 11000 nM |
| CCC(C)NC(=O)c1nc(-c2ccccc2N)cnc1N (stereo not drawn) | > 10000 | – | – |
| CCC(C)NC(=O)c1nc(-c2ccc(C)cc2)cnc1N (stereo not drawn) | 3740 | 22 | – |
| CCC(C)NC(=O)c1nc(-c2cccc(C(C)=O)c2)cnc1N (stereo not drawn) | > 10000 | – | – |
| CC(C)(C)NC(=O)c1nc(-c2ccccc2)cnc1N | 3000 | > 14 | microsomal CLint at 0.5 µM [3]: 246 µL/min/mg; logD [4]: 4.3; solubility kinetic [5]: < 1.6 µg/mL; solubility kinetic [6]: < 1.6 µg/mL; half-life [7]: 7 min; fraction unbound (serum albumin): 0.015 |
| CCC(C)NC(=O)c1nc(-c2ccc(C(C)=O)cc2)cnc1N (stereo not drawn) | 4700 | 8.8 | – |
| Nc1ncc(-c2ccccc2)nc1C(=O)N1CCOCC1 | > 10000 | – | – |
| CCC(C)NC(=O)c1nc(-c2cccc(Cl)c2)cnc1N (stereo not drawn) | 480 | 175 | EC50 (Plasmodium falciparum): 1100 nM; microsomal CLint at 0.5 µM [3]: 147 µL/min/mg; logD [4]: 4.4; EC50 (Leishmania donovani): > 10000 nM; EC50 [8]: 2020 nM; solubility kinetic [5]: 1.6 µg/mL (≈ 5.25 µM); EC50 (Trypanosoma cruzi): 25000 nM; selectivity ratio [9]: 20; solubility kinetic [6]: 1.6 µg/mL (≈ 5.25 µM); half-life [7]: 12 min; fraction unbound (serum albumin): 0.028; IC50 at 70 h [10]: 39000 nM |
| CCC(C)NC(=O)c1nc(-c2ccccc2OC)cnc1N (stereo not drawn) | 5400 | > 15.4 | – |
| CNC(=O)c1nc(-c2ccccc2)cnc1N | > 10000 | – | – |
| CCC(C)NC(=O)c1nc(-c2cccc(C#N)c2)cnc1N (stereo not drawn) | 2700 | > 30.5 | – |
| Nc1ncc(-c2ccccc2)nc1C(=O)NCCc1ccccc1 | > 10000 | – | – |
| Nc1ncc(-c2ccccc2)nc1C(=O)NCCN1CCCC1 | > 10000 | – | – |
| CCC(C)NC(=O)c1nc(-c2ccccc2C(C)=O)cnc1N (stereo not drawn) | 10000 | 7.9 | – |

| Compound | EC50 [1] [nM] | selectivity ratio [2] | also measured |
| --- | --- | --- | --- |
| Nc1ncc(-c2ccccc2)nc1C(=O)NCCCCO | 7300 | > 11 | – |
| CCC(C)NC(=O)c1nc(-c2cccc(C)c2)cnc1N (stereo not drawn) | 170 | > 495 | EC50 (Plasmodium falciparum): 19000 nM; EC50 (Leishmania donovani): > 10000 nM; EC50 [8]: 130 nM; EC50 (Trypanosoma cruzi): 25000 nM; selectivity ratio [9]: 340; IC50 at 70 h [10]: 43000 nM |
| CCC(C)NC(=O)c1nc(-c2ccccc2C#N)cnc1N (stereo not drawn) | 350 | > 239 | EC50 (Plasmodium falciparum): 3600 nM; microsomal CLint at 0.5 µM [3]: 122 µL/min/mg; logD [4]: 3.6; EC50 (Leishmania donovani): > 10000 nM; EC50 [8]: 640 nM; solubility kinetic [5]: 1.6 µg/mL (≈ 5.42 µM); EC50 (Trypanosoma cruzi): 11000 nM; solubility kinetic [6]: 1.6 µg/mL (≈ 5.42 µM); half-life [7]: 14 min; fraction unbound (serum albumin): 0.05; IC50 at 70 h [10]: 18000 nM |
| CCC(C)NC(=O)c1nc(-c2ccc(N)cc2)cnc1N (stereo not drawn) | 2900 | > 28.4 | – |
| CCC(CC)NC(=O)c1nc(-c2cccc(C)c2)cnc1N | 110 | 774 | EC50 (Plasmodium falciparum): 4100 nM; microsomal CLint at 0.5 µM [3]: 194 µL/min/mg; logD [4]: 4.7; EC50 (Leishmania donovani): > 10000 nM; EC50 [8]: 140 nM; solubility kinetic [5]: 1.6 µg/mL (≈ 5.36 µM); EC50 (Trypanosoma cruzi): 20000 nM; selectivity ratio [9]: 150; solubility kinetic [6]: 1.6 µg/mL (≈ 5.36 µM); half-life [7]: 9 min; fraction unbound (serum albumin): 0.036; IC50 at 70 h [10]: 20000 nM |
| Nc1ncc(-c2ccccc2)nc1C(=O)NCCO | > 10000 | – | – |
| CCC(CC)NC(=O)c1nc(-c2ccc(F)c(C)c2)cnc1N | 25 | 423 | EC50 (Plasmodium falciparum): 1800 nM; microsomal CLint at 0.5 µM [3]: 212 µL/min/mg; logD [4]: 4.8; EC50 (Leishmania donovani): > 10000 nM; EC50 [8]: 38 nM; solubility kinetic [5]: < 1.6 µg/mL; EC50 (Trypanosoma cruzi): 13000 nM; selectivity ratio [9]: 630; solubility kinetic [6]: < 1.6 µg/mL; half-life [7]: 8 min; fraction unbound (serum albumin): 0.022; IC50 at 70 h [10]: 24000 nM |
| Nc1ncc(-c2ccccc2)nc1C(=O)N1CCCCC1 | 4600 | > 18 | – |
| CC(C)NC(=O)c1nc(-c2ccccc2)cnc1N | 2600 | > 33 | – |
| Nc1ncc(-c2ccccc2)nc1C(=O)NCc1ccccc1 | 2600 | 32 | – |
| Nc1ncc(-c2ccccc2)nc1C(=O)N1CCCC1 | 6100 | > 14 | – |
| CCC(CC)NC(=O)c1nc(-c2ccccc2C#N)cnc1N | 170 | 488 | EC50 (Plasmodium falciparum): 4800 nM; EC50 (Leishmania donovani): > 10000 nM; EC50 [8]: 130 nM; EC50 (Trypanosoma cruzi): 15000 nM; selectivity ratio [9]: 80; IC50 at 70 h [10]: 10000 nM |
| Nc1ncc(-c2ccccc2)nc1C(=O)NCCN1CCOCC1 | > 10000 | – | – |
| CCC(C)NC(=O)c1nc(-c2ccccc2)cnc1N (stereo not drawn) | 490 | > 263 | EC50 (Plasmodium falciparum): 11000 nM; EC50 (Leishmania donovani): > 10000 nM; EC50 [8]: 970 nM; EC50 (Trypanosoma cruzi): 19000 nM; selectivity ratio [9]: 19; IC50 at 70 h [10]: 18000 nM |
| CCC(C)NC(=O)c1nc(-c2ccc(C#N)cc2)cnc1N (stereo not drawn) | 2700 | > 30.4 | – |
| CCC(C)NC(=O)c1nc(-c2ccc([N+](=O)[O-])cc2)cnc1N (stereo not drawn) | 4500 | > 18.5 | – |

Continued, in another order:

| EC50 [1] [nM] | Compound | selectivity ratio [2] | also measured |
| --- | --- | --- | --- |
| 570 | CCC(C)NC(=O)c1nc(-c2cccc(Br)c2)cnc1N (stereo not drawn) | 147 | – |
| 320 | CCC(CC)NC(=O)c1nc(-c2ccccc2)cnc1N | > 263 | microsomal CLint at 0.5 µM [3]: 133 µL/min/mg; logD [4]: 4.3; solubility kinetic [5]: 3.1 µg/mL (≈ 10.9 µM); solubility kinetic [6]: 6.3 µg/mL (≈ 22.2 µM); half-life [7]: 13 min; fraction unbound (serum albumin): 0.05 |
| 480 | CCC(CC)NC(=O)c1nc(-c2cc(C)cc(C)c2)cnc1N | 173 | – |
| 57 | N#Cc1cc(F)ccc1-c1cnc(N)c(C(=O)NC2CCCC2)n1 | 1470 | – |
| 820 | CCC(C)NC(=O)c1nc(-c2cccc(F)c2)cnc1N (stereo not drawn) | 102 | – |
| 1100 | CCC(C)NC(=O)c1nc(-c2cccc(N)c2)cnc1N (stereo not drawn) | > 77.8 | – |
| 450 | CCC(C)NC(=O)c1nc(-c2cccc([N+](=O)[O-])c2)cnc1N (stereo not drawn) | 185 | – |
| 890 | CCC(C)NC(=O)c1nc(-c2ccccc2[N+](=O)[O-])cnc1N (stereo not drawn) | 94 | – |
| 110 | Nc1ncc(-c2ccc(F)c(Cl)c2)nc1C(=O)NC1CCCC1 | 190 | – |
| 770 | CCC(CC)NC(=O)c1nc(-c2cc(C)cc(Cl)c2)cnc1N | 50 | – |
| 530 | CCCC(C)NC(=O)c1nc(-c2ccccc2)cnc1N (stereo not drawn) | > 156 | – |
| 410 | CCC(C)NC(=O)c1nc(-c2cccc(OC)c2)cnc1N (stereo not drawn) | > 201 | – |
| 750 | CCC(C)NC(=O)c1nc(-c2ccccc2F)cnc1N (stereo not drawn) | 111 | – |
| 260 | CCC(CC)NC(=O)c1nc(-c2cccc(C(F)(F)F)c2)cnc1N | 80 | – |
| 150 | Nc1ncc(-c2cccc(C(F)(F)F)c2)nc1C(=O)NC1CCCC1 | 560 | – |
| 1200 | CCC(C)NC(=O)c1nc(-c2ccccc2C)cnc1N (stereo not drawn) | > 71 | – |
| 1300 | CCC(C)NC(=O)c1nc(-c2ccc(OC)cc2)cnc1N (stereo not drawn) | > 63.9 | – |
| 360 | CCC(CC)NC(=O)c1nc(-c2cccc(Cl)c2)cnc1N | 110 | – |
| 71 | Nc1ncc(-c2ccc(F)cc2)nc1C(=O)NC1CCCC1 | 590 | – |
| 2200 | CCC(C)NC(=O)c1nc(-c2ccc(Br)cc2)cnc1N (stereo not drawn) | 38 | – |
| 220 | CCC(CC)NC(=O)c1nc(-c2ccc(F)c(Cl)c2)cnc1N | 190 | – |
| 1700 | CCCCCNC(=O)c1nc(-c2ccccc2)cnc1N | 50 | – |
| 500 | Cc1cc(Cl)cc(-c2cnc(N)c(C(=O)NC3CCCC3)n2)c1 | 170 | – |
| 680 | CCC(C)NC(=O)c1nc(-c2ccc(Cl)cc2)cnc1N (stereo not drawn) | 122 | microsomal CLint at 0.5 µM [3]: 48 µL/min/mg; logD [4]: 4.5; solubility kinetic [5]: 1.6 µg/mL (≈ 5.25 µM); solubility kinetic [6]: 3.1 µg/mL (≈ 10.2 µM); half-life [7]: 36 min; fraction unbound (serum albumin): 0.03 |
| 1100 | CCC(C)NC(=O)c1nc(-c2ccccc2Cl)cnc1N (stereo not drawn) | 76 | – |
| 240 | Nc1ncc(-c2cccc(Cl)c2)nc1C(=O)NC1CCCC1 | 340 | – |
| 24 | Cc1cc(-c2cnc(N)c(C(=O)NC3CCCC3)n2)ccc1F | 3540 | – |
